For 19 compounds, IC50 results are on record in ChEMBL document CHEMBL1212709, “Design of isoform-selective phospholipase D inhibitors that modulate cancer cell invasiveness” (Nat Chem Biol, 2009).

As usually defined, the IC50 is the concentration that gives 50% inhibition.

The target of assay [1] is T1, Phospholipase D1 (Rattus norvegicus, UniProt P70496).
T1 sequence (P70496 whole entry): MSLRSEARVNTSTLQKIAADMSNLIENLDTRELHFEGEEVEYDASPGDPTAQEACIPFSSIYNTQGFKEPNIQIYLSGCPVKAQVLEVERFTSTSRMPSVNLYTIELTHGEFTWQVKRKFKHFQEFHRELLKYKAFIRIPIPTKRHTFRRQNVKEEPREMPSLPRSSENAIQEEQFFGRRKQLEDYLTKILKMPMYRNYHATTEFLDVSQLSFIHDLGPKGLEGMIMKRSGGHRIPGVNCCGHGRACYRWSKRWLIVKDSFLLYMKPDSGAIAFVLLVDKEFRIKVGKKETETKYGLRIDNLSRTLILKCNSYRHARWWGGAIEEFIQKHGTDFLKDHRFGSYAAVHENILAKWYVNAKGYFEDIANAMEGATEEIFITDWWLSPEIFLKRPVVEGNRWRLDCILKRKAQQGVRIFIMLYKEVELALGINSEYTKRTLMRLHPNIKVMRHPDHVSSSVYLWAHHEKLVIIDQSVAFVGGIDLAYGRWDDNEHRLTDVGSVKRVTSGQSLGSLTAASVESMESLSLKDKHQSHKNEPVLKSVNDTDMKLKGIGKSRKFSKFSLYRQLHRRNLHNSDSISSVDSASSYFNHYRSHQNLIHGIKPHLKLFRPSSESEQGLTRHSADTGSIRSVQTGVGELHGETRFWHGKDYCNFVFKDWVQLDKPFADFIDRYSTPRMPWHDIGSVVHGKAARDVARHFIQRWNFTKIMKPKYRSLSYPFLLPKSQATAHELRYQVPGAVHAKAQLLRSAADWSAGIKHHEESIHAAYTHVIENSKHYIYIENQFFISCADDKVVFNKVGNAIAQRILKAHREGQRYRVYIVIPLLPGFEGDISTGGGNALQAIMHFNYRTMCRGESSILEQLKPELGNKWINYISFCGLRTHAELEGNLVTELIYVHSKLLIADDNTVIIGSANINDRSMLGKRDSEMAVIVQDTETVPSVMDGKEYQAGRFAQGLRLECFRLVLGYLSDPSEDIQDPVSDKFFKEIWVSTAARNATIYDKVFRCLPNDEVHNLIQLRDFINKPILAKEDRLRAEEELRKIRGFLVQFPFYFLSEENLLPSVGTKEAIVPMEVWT
As to the kind of experiment: Inhibition of N-terminally truncated rat PLD1 assessed as release of methyl-[3H]choline from choline-methyl-[3H]dipalmitoylphosphatidylcholine after 30 mins by exogenous substrate assay.

The target of assay [2] is T2, Phospholipase D1 (Homo sapiens, UniProt Q13393).
T2 sequence (Q13393 whole entry): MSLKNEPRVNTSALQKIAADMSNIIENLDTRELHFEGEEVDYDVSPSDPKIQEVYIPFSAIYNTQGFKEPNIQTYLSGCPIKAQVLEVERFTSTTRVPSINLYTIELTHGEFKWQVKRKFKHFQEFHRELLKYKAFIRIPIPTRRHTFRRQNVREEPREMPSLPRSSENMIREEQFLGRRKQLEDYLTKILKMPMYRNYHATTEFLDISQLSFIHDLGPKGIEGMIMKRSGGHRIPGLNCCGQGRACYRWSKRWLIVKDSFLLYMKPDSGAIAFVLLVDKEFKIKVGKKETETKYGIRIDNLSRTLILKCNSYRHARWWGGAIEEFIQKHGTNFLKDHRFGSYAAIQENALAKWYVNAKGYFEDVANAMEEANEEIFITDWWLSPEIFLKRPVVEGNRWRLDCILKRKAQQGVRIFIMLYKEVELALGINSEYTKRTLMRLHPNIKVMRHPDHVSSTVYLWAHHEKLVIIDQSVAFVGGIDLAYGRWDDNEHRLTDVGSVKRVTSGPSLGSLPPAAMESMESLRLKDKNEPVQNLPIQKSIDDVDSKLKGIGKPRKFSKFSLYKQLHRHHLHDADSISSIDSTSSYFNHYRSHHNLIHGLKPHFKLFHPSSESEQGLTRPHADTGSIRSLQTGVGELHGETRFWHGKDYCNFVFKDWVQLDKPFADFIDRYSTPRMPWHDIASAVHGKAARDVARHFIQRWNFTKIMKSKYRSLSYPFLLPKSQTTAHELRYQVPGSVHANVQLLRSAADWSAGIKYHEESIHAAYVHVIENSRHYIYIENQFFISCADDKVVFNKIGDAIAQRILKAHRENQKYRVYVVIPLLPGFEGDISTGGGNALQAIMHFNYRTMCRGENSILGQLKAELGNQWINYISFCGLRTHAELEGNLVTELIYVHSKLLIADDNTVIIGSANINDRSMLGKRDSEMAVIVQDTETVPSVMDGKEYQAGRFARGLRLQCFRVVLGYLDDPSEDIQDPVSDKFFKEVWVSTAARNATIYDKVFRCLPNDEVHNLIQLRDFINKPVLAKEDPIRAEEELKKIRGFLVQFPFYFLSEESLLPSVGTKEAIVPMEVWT

In assay [3] the target is T3, Phospholipase D2 (Homo sapiens, UniProt O14939). The assay can be described thus: Inhibition of human PLD2 assessed as release of methyl-[3H]choline from choline-methyl-[3H]dipalmitoylphosphatidylcholine after 30 mins by exogenous substrate assay.
T3 sequence (O14939 whole entry): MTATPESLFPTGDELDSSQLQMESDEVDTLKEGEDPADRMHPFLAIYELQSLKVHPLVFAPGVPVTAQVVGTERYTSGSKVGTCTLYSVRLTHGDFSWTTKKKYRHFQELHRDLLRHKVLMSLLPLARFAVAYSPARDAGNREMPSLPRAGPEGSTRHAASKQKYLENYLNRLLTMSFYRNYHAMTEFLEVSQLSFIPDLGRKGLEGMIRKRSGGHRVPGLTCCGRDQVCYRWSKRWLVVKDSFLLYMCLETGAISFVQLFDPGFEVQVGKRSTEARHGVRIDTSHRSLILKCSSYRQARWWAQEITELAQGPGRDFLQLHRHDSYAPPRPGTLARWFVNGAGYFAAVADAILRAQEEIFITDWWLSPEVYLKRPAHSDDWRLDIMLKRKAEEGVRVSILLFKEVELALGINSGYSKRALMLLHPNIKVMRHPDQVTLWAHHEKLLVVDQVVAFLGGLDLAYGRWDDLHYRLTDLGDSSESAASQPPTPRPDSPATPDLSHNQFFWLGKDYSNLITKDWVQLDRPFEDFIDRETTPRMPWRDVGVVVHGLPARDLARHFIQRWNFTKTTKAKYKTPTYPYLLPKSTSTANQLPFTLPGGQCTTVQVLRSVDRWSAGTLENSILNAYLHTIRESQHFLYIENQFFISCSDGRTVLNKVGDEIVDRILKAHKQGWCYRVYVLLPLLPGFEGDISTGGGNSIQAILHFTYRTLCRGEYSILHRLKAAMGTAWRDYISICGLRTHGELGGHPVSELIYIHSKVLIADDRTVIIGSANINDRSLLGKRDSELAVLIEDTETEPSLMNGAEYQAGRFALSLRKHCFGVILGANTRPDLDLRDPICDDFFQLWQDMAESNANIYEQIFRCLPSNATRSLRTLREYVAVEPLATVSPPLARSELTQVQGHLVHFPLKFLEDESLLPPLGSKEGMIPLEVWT
Assay [4] concerns the target T2, Phospholipase D1. As to the kind of experiment: Inhibition of human PLD1 assessed as release of methyl-[3H]choline from choline-methyl-[3H]dipalmitoylphosphatidylcholine after 30 mins by exogenous substrate assay.
Assay [5] deals with T3, Phospholipase D2. The assay can be described thus: Inhibition of GFP-tagged human PLD2 expressed in human HEK293 cells assessed as decrease in phosphatidylbutanol-[d9] production after 30 mins by mass spectrometric analysis. The assay is classed as cell-based.
Assay [6] is described as follows: Inhibition of PLD.
A short description of assay [7]: Inhibition of in Streptomyces chromofuscus PLD.
Assay [8] has as its target T2, Phospholipase D1. As to the kind of experiment: Inhibition of human PLD1b.

In the case of `CCC(=C(c1ccc(O)cc1)c1ccc(OCCN(C)C)cc1)c1ccccc1`, the IC50 was 28000 nM on Phospholipase D1 [1] and 4800 nM at Phospholipase D1 [2].

For `O=C(NCCN1CCC(n2c(=O)[nH]c3ccccc32)CC1)c1cc2cc(F)ccc2[nH]1`, the IC50 is 33 nM on Phospholipase D1 [1], 17 nM on Phospholipase D2 [3], 1 nM against Phospholipase D1 [2] and 9.5 nM at Phospholipase D1 [4].

Regarding `O=C(NCCN1CCC(n2c(=O)[nH]c3ccccc32)CC1)n1c2ccccc2c2ccccc21`, the IC50 at Phospholipase D1 [1] is 7200 nM; at Phospholipase D2 [3], 1000 nM; on Phospholipase D2 [5] it was 260 nM; on Phospholipase D1 [2], 330 nM; at Phospholipase D1 [4], 300 nM.

With `O=C(NCCN1CCC(n2c(O)nc3ccccc32)CC1)c1cccc2c1-c1ccccc1C2=O`, the concentration for half-maximal inhibition (IC50) on Phospholipase D1 [1] came out at 1100 nM; on Phospholipase D2 [3], 600 nM; on Phospholipase D2 [5], 1000 nM; against Phospholipase D1 [2], 20 nM; at Phospholipase D1 [4] it was 260 nM.

`Oc1ccc(/C=C/c2cc(O)cc(O)c2)cc1` [RESVERATROL] came in with an IC50 in assay [6] of over 60000 nM.

On to `Cc1ccc(C(=O)NCCN2CCC(n3c(O)nc4ccccc43)CC2)cc1`, for which the half-maximal inhibitory concentration (IC50) at Phospholipase D1 [1] is 1700 nM; on Phospholipase D2 [3] it was 1100 nM; at Phospholipase D2 [5] it was 210 nM; on Phospholipase D1 [2] it was 32 nM; on Phospholipase D1 [4] it was 780 nM.

Regarding `O=C(c1ccc(F)cc1)N(CCN1CCC(n2c(=O)[nH]c3ccccc32)CC1)C(=O)c1ccc(F)cc1`, the half-inhibitory concentration (IC50) on Phospholipase D1 [1] was determined as 870 nM; on Phospholipase D2 [3], 2200 nM; on Phospholipase D2 [5] it was 470 nM; against Phospholipase D1 [2], 48 nM; at Phospholipase D1 [4], 1400 nM.

Turning to `O=C(NCCN1CCC(n2c(O)nc3ccccc32)CC1)c1ccc(Cl)cc1`, the 50% inhibitory concentration (IC50) at Phospholipase D1 [1] was determined as 910 nM; at Phospholipase D2 [3], 130 nM; on Phospholipase D2 [5], 140 nM; against Phospholipase D1 [2] it was 6.3 nM; at Phospholipase D1 [4] it was 55 nM.

With `O=C(NCCN1CCC(n2c(=O)[nH]c3ccccc32)CC1)c1cc2ccccc2s1`, the half-inhibitory concentration (IC50) at Phospholipase D1 [1] is 1000 nM; at Phospholipase D2 [3], 340 nM; at Phospholipase D2 [5], 210 nM; against Phospholipase D1 [2], 14 nM; on Phospholipase D1 [4], 100 nM.

As for `O=C(NCCN1CCC(n2c(=O)[nH]c3ccccc32)CC1)c1ccc[nH]1`, the 50% inhibitory concentration (IC50) at Phospholipase D1 [1] is 1500 nM; at Phospholipase D2 [3], 1200 nM; at Phospholipase D2 [5], 340 nM; at Phospholipase D1 [2] it was 37 nM; at Phospholipase D1 [4], 316 nM.

For `O=C(c1ccc(OCCN2CCCCC2)cc1)c1c(-c2ccc(O)cc2)sc2cc(O)ccc12` [RALOXIFENE], the IC50 at Phospholipase D1 [1] was over 20000 nM; on Phospholipase D2 [3] it was 3400 nM; on Phospholipase D2 [5], 10000 nM; at Phospholipase D1 [2], 8500 nM; at Phospholipase D1 [4] it was 4300 nM.

For the compound `COc1ccc(C(=O)NCCN2CCC(n3c(=O)[nH]c4ccccc43)CC2)cc1`, the IC50 on Phospholipase D1 [1] is over 20000 nM; on Phospholipase D2 [3], over 20000 nM; at Phospholipase D2 [5] it was 1100 nM; on Phospholipase D1 [2] it was 1000 nM; on Phospholipase D1 [4], 15000 nM.

For `O=C(NCCN1CCC2(CC1)C(=O)NCN2c1ccccc1)c1ccc2ccccc2c1`, the 50% inhibitory concentration (IC50) at Phospholipase D1 [1] is over 20000 nM.

Take `O=C(NCCN1CCC(n2c(O)nc3ccccc32)CC1)c1ccc(Cl)c(Cl)c1`: the half-maximal inhibitory concentration (IC50) amounted to 910 nM at Phospholipase D1 [1]; 250 nM at Phospholipase D2 [3]; 220 nM on Phospholipase D2 [5]; 19 nM against Phospholipase D1 [2]; 46 nM at Phospholipase D1 [4].

Turning to `C=Cc1ccc(C(=O)NCCN2CCC(n3c(=O)[nH]c4ccccc43)CC2)cc1`, the figures for the IC50 on Phospholipase D1 [2] and on Phospholipase D1 [4] were 79 nM and 540 nM, respectively.

For `CC(C)=CCC/C(C)=C/CC/C(C)=C/[C@H]1[C@H](COP(=O)(O)OP(=O)(O)O)[C@@]1(C)CC/C=C(\C)CCC=C(C)C` [Z-PSDP], the IC50 was 100 nM in assay [7] and over 1000 nM at Phospholipase D1 [8].

In the case of `O=C(NCCN1CCC(n2c(=O)[nH]c3ccccc32)CC1)c1cc(Br)c(Br)o1`, the half-maximal inhibitory concentration (IC50) at Phospholipase D1 [1] turned out to be 2900 nM; on Phospholipase D2 [3], 170 nM; on Phospholipase D2 [5], 220 nM; on Phospholipase D1 [2], 8.9 nM; at Phospholipase D1 [4] it was 79 nM.

Take `O=C(NCCN1CCC2(CC1)C(=O)NCN2c1ccccc1)c1ccc(C(F)(F)F)cc1`: the IC50 at Phospholipase D1 [1] was over 20000 nM; at Phospholipase D2 [3] it was 4300 nM.

In the case of `O=C(NCCN1CCC(n2c(=O)[nH]c3ccccc32)CC1)c1cc(Cl)cc(Cl)c1`, the concentration for half-maximal inhibition (IC50) came to 3500 nM on Phospholipase D1 [1]; 1900 nM on Phospholipase D2 [3]; 1100 nM at Phospholipase D2 [5]; 85 nM on Phospholipase D1 [2]; 400 nM on Phospholipase D1 [4].
